# Where two headings read alike, the source gives them in different places.
# Assays:
# [1] = tested on: mitochondrial threonine dehydrogenase; assay: Threonine dehydrogenase activity in mitochondrial fraction of treated T. brucei 427; type: cell-based, Trypanosoma brucei; conditions: 0.12 μM compound, 24 h
# Protocol: T. brucei 427 bloodstream forms were preincubated for 24 h in appropriate conditions (0.12 μM mitoDFO, 0.12 μM DFO, and no addition) and harvested, and cytosolic and mitochondrial fractions were separated by digitonin fractionation as described previously.[46] Briefly, cells were spun down (1200 g, 15 min, 4 °C) and resuspended in SHE buffer (250 mM sucrose, 25 mM HEPES, 1 mM EDTA, pH 7.4), and protein concentration was measured using a BCA kit (Sigma-Aldrich). Subsequently, cells were transferred into HBSS (Sigma-Aldrich) and digitonin (Calbiochem) was added in the protein/digitonin ratio of 1/0.15 for 4 min and spun (21 000 g, 2 min, 4 °C). […] The activities of cytosolic pyruvate kinase and mitochondrial threonine dehydrogenase were assessed in all conditions using the spectrophotometric assay at […], as described in ref ([46]), and served both as markers of successful fraction preparation and to assess the effect of the studied compounds. Briefly, pyruvate kinase was measured in TEA buffer (0.1 M triethanolamine, 5 mM MgSO4, 50 mM KCl, pH 7.6) with added 2.8 mM phosphoenolpyruvate, 2 mM ADP, 0.3 mM NADH, and lactate dehydrogenase. Threonine dehydrogenase was measured in 0.2 M Tris–HCl buffer, pH 8.6, 0.25 KCl with 120 mM threonine, and 2.5 mM NAD^+. Fumarase was measured at […] in 2 mM Tris–HCl buffer, pH 7.5, with 20 mM malate.
# T. brucei BSF cells = assay: Sytox Green assay, percentage of live cells; type: cell-based, Trypanosoma brucei
# Protocol: Sytox Green Assay to determine the percentage of live treated and untreated cells at selected time points. T. brucei BSF cells were seeded at a concentration of 2 × 10^5 cells/mL in 5 mL HMI-9 medium in aerobic cultivation flasks. Cells were treated with compounds at final concentration of 0,05 µM, 0,1 µM, 0,25 µM mitoDFO and 10 µM, 100 µM DFO. In addition, there was a group of untreated cells. At defined time points (24, 36, 48, and 72 h), 20 µL samples were collected from each flask. These samples were then diluted tenfold in fresh HMI-9 medium, reaching a final volume of 200 µL, with the addition of 2 µL SYTOX Green Dead Cell Stain (Invitrogen). Following a 30-minute incubation under standard growth conditions, the cells were analyzed using a Guava EasyCyte 8HT flow cyometer (Luminex flow) with detection at 504/523 nm. This entire procedure was conducted in biological triplicates.
# Compound Concentration % of live cells
# N. fowleri = assay: Drug sensitivity assay, N. fowleri (flow cytometry); type: cell-based; conditions: for selectivity (for −Fe): EC50 human fibroblasts / EC50 N. fowleri; for EC50: Naegleria fowleri, 72 h
# Protocol: (§1) All organisms were cultivated according to the conditions summarized in Table S2, which also includes strain specifications. Dose–response curves were obtained by their cultivation on 96 well plates in a 2-fold series dilution of the appropriate drug, in a total volume of 200 μL (with the exception of P. falciparum, where the total volume was 100 μL). Iron supplementation was achieved by mixing the compound with Fe-NTA in an equimolar ratio prior to setting up the experiment. Results were plotted and processed using Prism 8.0 (GraphPad Software). A two-tailed unpaired t-test was performed to assess the significance of the difference between mitoDFO with and without added iron. Selectivity was calculated as the ratio of the average EC50 value for human fibroblasts to the average EC50 value for the appropriate pathogen. All data were obtained from a minimum of three independent biological replicates.
# Human fibroblast BJ1 = assay: Drug sensitivity assay, human fibroblast BJ1 (CellTiter-Glo); type: cell-based; conditions: for EC50: 48 h
# Protocol: as §1
# T. gambiense (BSF) = assay: Drug sensitivity assay, T. gambiense bloodstream form (resazurine); type: cell-based, Trypanosoma gambiense; conditions: for selectivity (for −Fe): EC50 human fibroblasts / EC50 T. gambiense (BSF); for EC50: Trypanosoma brucei, 72 h
# Protocol: as §1
# C. neoformans = assay: Drug sensitivity assay, C. neoformans (OD600); type: cell-based, Cryptococcus neoformans; conditions: for EC50: Cryptococcus neoformans, 72 h
# Protocol: as §1
# [2] = tested on: intracellular Leishmania mexicana amastigotes; assay: Intracellular L. mexicana infection assay, GFP amastigotes in macrophages; type: cell-based; conditions: for EC50: Leishmania mexicana, Macrophage, read-out: EC50 infection assay Leishmania mexicana
# Protocol: Approximately 10 000 murine macrophages per well were seeded on 96 well plate, and a suspension of 60 000 L. mexicana GFP-expressing promastigotes was added to each well and left to infect the mammal cells for 72 h in a cultivation medium under the conditions described in Table S2. 2-fold dilution series starting with 100 μM of either mitoDFO, DFO, or Amphotericin B in a regular growth medium were added, and cultures were incubated for further 72 h in the same conditions. Macrophage cells were washed and resuspended in growth medium and detached by pipetting, and their concentration in each well was measured on a Guava EasyCyte 8HT flow cytometer (Luminex). The GFP signal of internalized L. mexicana amastigotes in each macrophage was detected using a 488 nm excitation laser and a 525/30 nm detector. Median fluorescence graphs were plotted, and EC50 values for both macrophages and intracellular L. mexicana were calculated using Prism 8.0 (GraphPad Software).
# G. intestinalis = assay: Drug sensitivity assay, G. intestinalis (flow cytometry); type: cell-based; conditions: for EC50: Giardia duodenalis, 24 h
# Protocol: as §1
# B. divergens = assay: Drug sensitivity assay, B. divergens in bovine erythrocytes (flow cytometry); type: cell-based, Babesia divergens; conditions: for EC50: Babesia divergens, Erythrocyte, 48 h; for selectivity (for −Fe): EC50 human fibroblasts / EC50 B. divergens
# Protocol: as §1
# murine macrophage = assay: Murine macrophage axenic monoculture EC50; type: cell-based, mouse; conditions: Mus musculus, Macrophage, read-out: EC50 axenic murine macrophage
# A. castellanii = assay: Drug sensitivity assay, A. castellanii (flow cytometry); type: cell-based, Acanthamoeba castellanii; conditions: for EC50: Acanthamoeba castellanii, 96 h; for selectivity (for −Fe): EC50 human fibroblasts / EC50 A. castellanii
# Protocol: as §1
# T. brucei 427 (BSF) = assay: Drug sensitivity assay, T. brucei 427 bloodstream form (resazurine); type: cell-based, Trypanosoma brucei; conditions: for selectivity (for −Fe): EC50 human fibroblasts / EC50 T. brucei 427 (BSF); for EC50: Trypanosoma brucei, 72 h
# Protocol: as §1
smiles,measurement,setting,value
"CC(=O)N(O)CCCCCNC(=O)CCC(=O)N(O)CCCCCNC(=O)CCC(=O)N(O)CCCCCN [DFO, Deferoxamine, reference compound]",threonine dehydrogenase activity,[1],not
same,% of live cells,"T. brucei BSF cells; 10 µM DFO, 24h","99,1%"
same,% of live cells,"T. brucei BSF cells; 10 µM DFO, 36h","97,5%"
same,% of live cells,"T. brucei BSF cells; 10 µM DFO, 48h","74,3%"
same,% of live cells,"T. brucei BSF cells; 10 µM DFO, 72h","58,6%"
same,% of live cells,"T. brucei BSF cells; 100 µM DFO, 24h","95,5%"
same,% of live cells,"T. brucei BSF cells; 100 µM DFO, 36h","78,2%"
same,% of live cells,"T. brucei BSF cells; 100 µM DFO, 48h","62,1%"
same,% of live cells,"T. brucei BSF cells; 100 µM DFO, 72h","54,8%"
same,selectivity (for −Fe),N. fowleri,>5
same,EC50,"N. fowleri; iron-free compound, N. fowleri, read-out: EC50 –Fe",19.5 ± 5.9 µM
same,EC50,"N. fowleri; pre-treated with equimolar iron, N. fowleri, read-out: EC50 +Fe",> 100 µM
same,EC50,"Human fibroblast BJ1; iron-free compound, Human fibroblast BJ1, read-out: EC50 –Fe",> 100 µM
same,EC50,"Human fibroblast BJ1; pre-treated with equimolar iron, Human fibroblast BJ1, read-out: EC50 +Fe",> 100 µM
same,selectivity (for −Fe),T. gambiense (BSF),>40
same,EC50,"T. gambiense (BSF); iron-free compound, T. gambiense (BSF), read-out: EC50 –Fe",2.47 ± 1.16 µM
same,EC50,"T. gambiense (BSF); pre-treated with equimolar iron, T. gambiense (BSF), read-out: EC50 +Fe",> 25 µM
same,EC50,"C. neoformans; iron-free compound, C. neoformans, read-out: EC50 –Fe",> 100 µM
same,EC50,"C. neoformans; pre-treated with equimolar iron, C. neoformans, read-out: EC50 +Fe",> 100 µM
same,EC50,"[2]; intracellular amastigotes, 72 h treatment",47.1 ± 2.91 µM
same,EC50,"G. intestinalis; iron-free compound, G. intestinalis, read-out: EC50 –Fe",> 100 µM
same,EC50,"G. intestinalis; pre-treated with equimolar iron, G. intestinalis, read-out: EC50 +Fe",> 100 µM
same,EC50,"B. divergens; iron-free compound, B. divergens, read-out: EC50 –Fe",10.8 ± 1.3 µM
same,EC50,"B. divergens; pre-treated with equimolar iron, B. divergens, read-out: EC50 +Fe",> 50 µM
same,selectivity (for −Fe),B. divergens,>9
same,EC50,murine macrophage; axenic monoculture,> 25 µM
same,EC50,"A. castellanii; iron-free compound, A. castellanii, read-out: EC50 –Fe",8.9 ± 0.6 µM
same,EC50,"A. castellanii; pre-treated with equimolar iron, A. castellanii, read-out: EC50 +Fe",> 50 µM
same,selectivity (for −Fe),A. castellanii,>11
same,selectivity (for −Fe),T. brucei 427 (BSF),>5
same,EC50,"T. brucei 427 (BSF); iron-free compound, T. brucei 427 (BSF), read-out: EC50 –Fe",22 ± 1.2 µM
same,EC50,"T. brucei 427 (BSF); pre-treated with equimolar iron, T. brucei 427 (BSF), read-out: EC50 +Fe",> 50 µM
CC(=O)N(O)CCCCCNC(=O)CCC(=O)N(O)CCCCCNC(=O)CCC(=O)N(O)CCCCCN(CCCCCCCCCC[P+](c1ccccc1)(c1ccccc1)c1ccccc1)CCCCCCCCCC[P+](c1ccccc1)(c1ccccc1)c1ccccc1 [mitoDFO],threonine dehydrogenase activity,[1],significantly reduced
same,% of live cells,"T. brucei BSF cells; 0,1 µM mitoDFO, 24h","99,1%"
same,% of live cells,"T. brucei BSF cells; 0,1 µM mitoDFO, 36h","97,9%"
same,% of live cells,"T. brucei BSF cells; 0,1 µM mitoDFO, 48h","66,2%"
same,% of live cells,"T. brucei BSF cells; 0,1 µM mitoDFO, 72h","53,8%"
same,% of live cells,"T. brucei BSF cells; 0,05 µM mitoDFO, 24h","98,6%"
same,% of live cells,"T. brucei BSF cells; 0,05 µM mitoDFO, 36h","96,1%"
same,% of live cells,"T. brucei BSF cells; 0,05 µM mitoDFO, 48h","62,1%"
same,% of live cells,"T. brucei BSF cells; 0,05 µM mitoDFO, 72h","52,8%"
same,% of live cells,"T. brucei BSF cells; 0,25 µM mitoDFO, 24h","94,4%"
same,% of live cells,"T. brucei BSF cells; 0,25 µM mitoDFO, 36h","82,5%"
same,% of live cells,"T. brucei BSF cells; 0,25 µM mitoDFO, 48h","70,2%"
same,% of live cells,"T. brucei BSF cells; 0,25 µM mitoDFO, 72h","64,3%"
same,cells alive,T. brucei BSF cells; 24 h incubation with up to 0.25 μM,more than 90%
same,living cells,"T. brucei BSF cells; twice the EC50 concentration, 36 h",more than 95%
same,selectivity (for −Fe),N. fowleri,1
same,DFO/mitoDFO ratio (−Fe),N. fowleri; N. fowleri,2.9
same,mitoDFO EC50 ratio + Fe/–Fe,N. fowleri; N. fowleri,3.0
same,EC50,N. fowleri; read-out: EC50 –Fe,6.7 ± 0.7 µM
same,EC50,"Human fibroblast BJ1; Homo sapiens, Fibroblast, read-out: EC50 –Fe",8.9 ± 3.2 µM
same,DFO/mitoDFO ratio (−Fe),Human fibroblast BJ1; Human fibroblast BJ1,>11.2
same,mitoDFO EC50 ratio + Fe/–Fe,Human fibroblast BJ1; Human fibroblast BJ1,2.5
same,selectivity (for −Fe),T. gambiense (BSF),49
same,DFO/mitoDFO ratio (−Fe),T. gambiense (BSF); T. gambiense (BSF),13.7
same,mitoDFO EC50 ratio + Fe/–Fe,T. gambiense (BSF); T. gambiense (BSF),1.2
same,EC50,"T. gambiense (BSF); GAMBIENSE, read-out: EC50 –Fe",0.181 ± 0.043 µM
same,DFO/mitoDFO ratio (−Fe),C. neoformans; C. neoformans,>50
same,mitoDFO EC50 ratio + Fe/–Fe,C. neoformans; C. neoformans,2.1
same,EC50,C. neoformans; read-out: EC50 –Fe,2 ± 0.5 µM
same,selectivity (for −Fe),C. neoformans; EC50 human fibroblasts / EC50 C. neoformans,4
same,"decrease in EC50 concentration, intracellular amastigotes versus axenic parasites",[2],2 fold
same,EC50,[2]; 72 h,0.67 ± 0.24 µM
same,EC50,G. intestinalis; read-out: EC50 –Fe,> 50 µM
same,effect on G. intestinalis,G. intestinalis; in words,not affected
same,DFO/mitoDFO ratio (−Fe),B. divergens; B. divergens,4.7
same,mitoDFO EC50 ratio + Fe/–Fe,B. divergens; B. divergens,2.5
same,EC50,B. divergens; read-out: EC50 –Fe,2.3 ± 0.8 µM
same,selectivity (for −Fe),B. divergens,4
same,EC50,murine macrophage,6.34 ± 4.45 µM
same,DFO/mitoDFO ratio (−Fe),A. castellanii; A. castellanii,11.1
same,mitoDFO EC50 ratio + Fe/–Fe,A. castellanii; A. castellanii,1.3
same,selectivity (for −Fe),A. castellanii,11
same,selectivity (for −Fe),T. brucei 427 (BSF),151
same,DFO/mitoDFO ratio (−Fe),T. brucei 427 (BSF); T. brucei 427 (BSF),372.9
same,mitoDFO EC50 ratio + Fe/–Fe,T. brucei 427 (BSF); T. brucei 427 (BSF),2.1
same,EC50,T. brucei 427 (BSF); read-out: EC50 –Fe,0.059 ± 0.022 µM

# Source: article PMC10862539, “Chelation of Mitochondrial Iron as an Antiparasitic Strategy” (ACS Infectious Diseases, 2024)
